# From patent US8492387B2, “2-aminoimidazole beta-secretase inhibitors for the treatment of alzheimer's disease” (Merck, Sharp & Dohme, Corp., priority 2008, dated 2013)
# Target: BACE 1 (beta-secretase enzyme) (Homo sapiens (Human), UniProt P56817)
# Assay: ECL Assay (homogeneous end point electrochemiluminescence assay with biotinylated BACE substrate)
# Format: biochemical
# Details: soluble human enzyme, pH 6.5, rt
# Experimental: Enzyme inhibition is determined as follows.
# ECL Assay: A homogeneous end point electrochemiluminescence (ECL) assay is performed using a biotinylated BACE substrate. The Km of the substrate is approximated at 50 μM. A typical reaction contains approximately 0.6 nM enzyme, 0.25 μM of the substrate, and buffer (50 mM Pipes, pH 6.5, 0.1 mg/ml BSA, 0.2% CHAPS, 15 mM EDTA and 1 mM deferoxamine) in a total reaction volume of 100 μl. The reaction proceeds for 1-2 hrs and is then stopped by the addition of 150 μL of a quench cocktail solution ([…], pH 8.0, 50 μL INC buffer (2% BSA, 0.2% Tween-20 and 0.05% sodium azide diluted in phosphate buffered saline (PBS) plus 75 μL, PBS), containing streptavadin coated magnetic beads and ruthenylated antibody which specifically recognizes the C-terminal residue of the product. The samples are subjected to M-384 (Igen Inc., Gaithersburg, Md.) analysis. Under these conditions, less than 10% of substrate is processed by BACE 1. The enzyme used in these studies is soluble (transmembrane domain and cytoplasmic extension excluded) human protein produced in a baculovirus expression system. To measure the inhibitory potency for compounds, 10 concentrations of inhibitors are prepared starting from 200 μM with three fold series dilution. Solutions of the inhibitor in DMSO are included in the reaction mixture (final DMSO concentration is 10%). All experiments are conducted at rt using the standard reaction conditions described above. To determine the IC50 of the compound, a four parameter equation is used for curve fitting. The errors in reproducing the dissociation constants are typically less than two-fold.
# BACE 1 (beta-secretase enzyme), sequence (P56817 46-457): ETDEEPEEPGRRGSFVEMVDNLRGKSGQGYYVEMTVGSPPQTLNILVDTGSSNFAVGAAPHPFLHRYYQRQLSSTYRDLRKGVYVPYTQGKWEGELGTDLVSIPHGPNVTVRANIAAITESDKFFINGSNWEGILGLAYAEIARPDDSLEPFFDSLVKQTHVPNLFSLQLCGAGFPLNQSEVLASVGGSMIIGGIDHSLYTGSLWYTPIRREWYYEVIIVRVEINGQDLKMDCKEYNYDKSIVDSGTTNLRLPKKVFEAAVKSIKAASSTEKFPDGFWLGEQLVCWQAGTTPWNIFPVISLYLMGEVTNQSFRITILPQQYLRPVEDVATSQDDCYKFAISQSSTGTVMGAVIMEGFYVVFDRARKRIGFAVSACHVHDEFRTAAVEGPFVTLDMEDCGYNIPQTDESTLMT
row,IC50 [µM],SMILES
1,5,"COc1ccc([C@H](Cc2ccc(C(F)(F)F)cc2)c2nc(N)[nH]c2C(O)c2ccccc2)cc1 (stereo partly drawn) [Example 2, (2-amino-4-{(1S)-1-(4-methoxyphenyl)-2-[4-(trifluoromethyl)phenyl]ethyl}-1H-imidazole-5-yl) (phenyl)methanol]"
2,12,"Cn1cc(C2(Cc3ccccc3)CCc3ccccc32)nc1N (centres unmarked) [Example 3, 4-(1-benzyl-2,3-dihydro-1H-inden-1-yl)-1-methyl-1H-imidazol-2-amine]"
3,11,"COc1ccc(C(Cc2cccc(-c3ccc(C(F)(F)F)cc3Cl)c2)c2cn(C)c(N)n2)cc1 (centres unmarked) [Example 34, 4-[2-[2′-chloro-4′-(trifluoromethyl)biphenyl-3-yl]-1-(4-methoxyphenyl)ethyl]-1-methyl-1H-imidazol-2-amine]"
4,27,"COc1ccc(C2(c3cn(C)c(N)n3)CCCCC2)cc1 [Example 41, 4-[1-(4-methoxyphenyl)cyclohexyl]-1-methyl-1H-imidazol-2-amine]"
5,17,"COc1ccc(C(Cc2ccc(-c3ccc(O)nc3)cc2)c2cn(C)c(N)n2)cc1 (centres unmarked) [Example 55, 5-{4-[2-(2-amino-1-methyl-1H-imidazol-4-yl)-2-(4-methoxyphenyl)ethyl]phenyl}pyridin-2-ol]"
6,3.2,"COc1ccc2c(c1)CCC2(Cc1cc([N+](=O)[O-])ccc1OC)c1cn(C)c(N)n1 (centres unmarked) [Example 111, 4-[5-methoxy-1-(2-methoxy-5-nitrobenzyl)-2,3-dihydro-1H-inden-1-yl]-1-methyl-1H-imidazol-2-amine]"
7,0.063,"COc1ccc2c(c1)CCC2(Cc1ccc(C(F)(F)F)nc1)c1cn(Cc2ccccc2)c(N)n1 (centres unmarked) [Example 114, 1-benzyl-4-(5-methoxy-1-{[6-(trifluoromethyl)pyridin-3-yl]methyl}-2,3-dihydro-1H-inden-1-yl)-1H-imidazol-2-amine]"
8,3.3,"COc1ccc2c(c1)CCC2(Cc1ccc(C(F)(F)F)nc1)c1cn(CCCO)c(N)n1 (centres unmarked) [Example 115, 3-[2-amino-4-(5-methoxy-1-{[6-(trifluoromethyl)pyridin-3-yl]methyl}-2,3-dihydro-1H-inden-1-yl)-1H-imidazol-1-yl]propan-1-ol]"
